Numbers after ± are expanded uncertainties.
Test: xn = mol fraction of the nth substance listed
Conditions: 101 kPa, Liquid; for mass density: Vibrating tube method

NCCO.O=CO [2-hydroxyethylammonium formate] + CCO
Conditions | mass density [kg/m3] | speed of sound [m/s]
305.65 K, x2 = 0 | – | 1690.8 ± 9.8
305.65 K, x2 = 0.058 | – | 1704.7 ± 9.7
305.65 K, x2 = 0.098 | – | 1685.5 ± 9.5
305.65 K, x2 = 0.193 | – | 1642.7 ± 9.2
305.65 K, x2 = 0.296 | – | 1598.7 ± 8.8
305.65 K, x2 = 0.399 | – | 1545.2 ± 8.4
305.65 K, x2 = 0.5 | – | 1485.4 ± 8
305.65 K, x2 = 0.598 | – | 1421.8 ± 7.7
305.65 K, x2 = 0.701 | – | 1353.1 ± 7.3
305.65 K, x2 = 0.799 | – | 1281.3 ± 6.9
305.65 K, x2 = 0.9 | – | 1206.1 ± 6.5
305.65 K, x2 = 0.95 | – | 1165.7 ± 6.3
308.15 K, x2 = 0 | 1169.39 ± 31 | 1684.8 ± 9.7
308.15 K, x2 = 0.058 | 1159.76 ± 31 | 1699.5 ± 9.7
308.15 K, x2 = 0.098 | 1147.72 ± 30 | 1680.2 ± 9.5
308.15 K, x2 = 0.193 | 1122.18 ± 30 | 1637.3 ± 9.1
308.15 K, x2 = 0.296 | 1096.28 ± 30 | 1593 ± 8.8
308.15 K, x2 = 0.399 | 1065.47 ± 30 | 1539.2 ± 8.4
308.15 K, x2 = 0.5 | 1030.18 ± 30 | 1479.2 ± 8
308.15 K, x2 = 0.598 | 991.781 ± 30 | 1415.2 ± 7.6
308.15 K, x2 = 0.701 | 948.127 ± 30 | 1346.1 ± 7.2
308.15 K, x2 = 0.799 | 898.707 ± 30 | 1274 ± 6.8
308.15 K, x2 = 0.9 | 842.788 ± 30 | 1198.3 ± 6.5
308.15 K, x2 = 0.95 | 811.783 ± 30 | 1157.6 ± 6.3
310.65 K, x2 = 0 | 1167.62 ± 31 | 1678.7 ± 9.7
310.65 K, x2 = 0.058 | 1158.11 ± 31 | 1694.4 ± 9.6
310.65 K, x2 = 0.098 | 1146.06 ± 30 | 1674.9 ± 9.5
310.65 K, x2 = 0.193 | 1120.49 ± 30 | 1631.8 ± 9.1
310.65 K, x2 = 0.296 | 1094.56 ± 30 | 1587.4 ± 8.8
310.65 K, x2 = 0.399 | 1063.71 ± 30 | 1533.3 ± 8.4
310.65 K, x2 = 0.5 | 1028.38 ± 30 | 1473 ± 8
310.65 K, x2 = 0.598 | 989.927 ± 30 | 1408.7 ± 7.6
310.65 K, x2 = 0.701 | 946.21 ± 30 | 1339.3 ± 7.2
310.65 K, x2 = 0.799 | 896.716 ± 30 | 1266.7 ± 6.8
310.65 K, x2 = 0.9 | 840.709 ± 30 | 1190.5 ± 6.4
310.65 K, x2 = 0.95 | 809.653 ± 30 | 1149.5 ± 6.2
313.15 K, x2 = 0 | 1165.84 ± 31 | 1672.7 ± 9.7
313.15 K, x2 = 0.058 | 1156.45 ± 31 | 1689.2 ± 9.6
313.15 K, x2 = 0.098 | 1144.4 ± 30 | 1669.8 ± 9.4
313.15 K, x2 = 0.193 | 1118.8 ± 30 | 1626.3 ± 9.1
313.15 K, x2 = 0.296 | 1092.84 ± 30 | 1581.7 ± 8.7
313.15 K, x2 = 0.399 | 1061.95 ± 30 | 1527.4 ± 8.4
313.15 K, x2 = 0.5 | 1026.57 ± 30 | 1466.8 ± 8
313.15 K, x2 = 0.598 | 988.066 ± 30 | 1402.2 ± 7.6
313.15 K, x2 = 0.701 | 944.29 ± 30 | 1332.3 ± 7.2
313.15 K, x2 = 0.799 | 894.718 ± 30 | 1259.3 ± 6.8
313.15 K, x2 = 0.9 | 838.621 ± 30 | 1182.7 ± 6.4
313.15 K, x2 = 0.95 | 807.511 ± 30 | 1141.4 ± 6.2
315.65 K, x2 = 0 | 1164.06 ± 31 | 1666.7 ± 9.7
315.65 K, x2 = 0.058 | 1154.81 ± 31 | 1684.1 ± 9.6
315.65 K, x2 = 0.098 | 1142.73 ± 30 | 1664.5 ± 9.4
315.65 K, x2 = 0.193 | 1117.11 ± 30 | 1620.9 ± 9.1
315.65 K, x2 = 0.296 | 1091.12 ± 30 | 1576 ± 8.7
315.65 K, x2 = 0.399 | 1060.19 ± 30 | 1521.5 ± 8.3
315.65 K, x2 = 0.5 | 1024.77 ± 30 | 1460.5 ± 7.9
315.65 K, x2 = 0.598 | 986.208 ± 30 | 1395.6 ± 7.5
315.65 K, x2 = 0.701 | 942.365 ± 30 | 1325.5 ± 7.2
315.65 K, x2 = 0.799 | 892.716 ± 30 | 1252 ± 6.8
315.65 K, x2 = 0.9 | 836.524 ± 30 | 1174.9 ± 6.4
315.65 K, x2 = 0.95 | 805.362 ± 30 | 1133.4 ± 6.2
318.15 K, x2 = 0 | 1162.29 ± 31 | 1660.8 ± 9.6
318.15 K, x2 = 0.058 | 1153.16 ± 31 | 1679 ± 9.6
318.15 K, x2 = 0.098 | 1141.07 ± 30 | 1659.2 ± 9.4
318.15 K, x2 = 0.193 | 1115.42 ± 30 | 1615.5 ± 9.1
318.15 K, x2 = 0.296 | 1089.4 ± 30 | 1570.4 ± 8.7
318.15 K, x2 = 0.399 | 1058.44 ± 30 | 1515.6 ± 8.3
318.15 K, x2 = 0.5 | 1022.96 ± 30 | 1454.4 ± 7.9
318.15 K, x2 = 0.598 | 984.346 ± 30 | 1389.2 ± 7.5
318.15 K, x2 = 0.701 | 940.437 ± 30 | 1318.7 ± 7.1
318.15 K, x2 = 0.799 | 890.71 ± 30 | 1244.8 ± 6.7
318.15 K, x2 = 0.9 | 834.423 ± 30 | 1167.2 ± 6.3
318.15 K, x2 = 0.95 | 803.205 ± 30 | 1125.4 ± 6.2
320.65 K, x2 = 0 | 1160.51 ± 31 | 1654.8 ± 9.6
320.65 K, x2 = 0.058 | 1151.51 ± 31 | 1673.9 ± 9.6
320.65 K, x2 = 0.098 | 1139.41 ± 30 | 1654 ± 9.4
320.65 K, x2 = 0.193 | 1113.73 ± 30 | 1610.1 ± 9
320.65 K, x2 = 0.296 | 1087.69 ± 30 | 1564.8 ± 8.7
320.65 K, x2 = 0.399 | 1056.68 ± 30 | 1509.9 ± 8.3
320.65 K, x2 = 0.5 | 1021.15 ± 30 | 1448.2 ± 7.9
320.65 K, x2 = 0.598 | 982.484 ± 30 | 1382.8 ± 7.5
320.65 K, x2 = 0.701 | 938.509 ± 30 | 1311.8 ± 7.1
320.65 K, x2 = 0.799 | 888.697 ± 30 | 1237.6 ± 6.7
320.65 K, x2 = 0.9 | 832.314 ± 30 | 1159.5 ± 6.3
320.65 K, x2 = 0.95 | 801.039 ± 30 | 1117.5 ± 6.1
323.15 K, x2 = 0 | 1158.73 ± 31 | 1648.9 ± 9.6
323.15 K, x2 = 0.058 | 1149.88 ± 31 | 1668.8 ± 9.6
323.15 K, x2 = 0.098 | 1137.78 ± 30 | 1648.8 ± 9.4
323.15 K, x2 = 0.193 | 1112.06 ± 30 | 1604.7 ± 9
323.15 K, x2 = 0.296 | 1085.98 ± 30 | 1559.4 ± 8.7
323.15 K, x2 = 0.399 | 1054.93 ± 30 | 1504.2 ± 8.3
323.15 K, x2 = 0.5 | 1019.35 ± 30 | 1442.1 ± 7.9
323.15 K, x2 = 0.598 | 980.632 ± 30 | 1376.5 ± 7.5
323.15 K, x2 = 0.701 | 936.584 ± 30 | 1305.1 ± 7.1
323.15 K, x2 = 0.799 | 886.69 ± 30 | 1230.5 ± 6.7
323.15 K, x2 = 0.9 | 830.212 ± 30 | 1152 ± 6.3
323.15 K, x2 = 0.95 | 798.879 ± 30 | 1109.7 ± 6.1
